From patent publication US7683092B2, “Crystalline forms of antidiabetic compounds” (Merck Sharp & Dohme Corp., priority 2005, dated 2010) come the findings set out here.

Data set [1] in a line: Thermodynamic stability of crystal forms. To be noted: among free acid crystal forms of Compound II.
A short description of data set [2]: Hygroscopicity of the crystalline form. The format is physicochemical. To be noted: solid crystalline form.

With `CC[C@@H](Oc1cccc(Cn2c(C)c(C(=O)c3ccc(Cl)cc3)c3ccc(OC(F)(F)F)cc32)c1)C(=O)O` [Acid Form C, (2R)-2-{3-[[3-(4-chlorobenzoyl)-2-methyl-6-(trifluoromethoxy)-1H-indol-1-yl]methyl]phenoxy}butyric acid], the “thermodynamic stability of crystal form” value is “thermodynamically stable” in data set [1] and “most thermodynamically stable acid form” in data set [1] (listed as Form C free acid).

As to `CC[C@@H](Oc1cccc(-n2c(C)c(C(=O)c3ccc(OC)cc3)c3ccc(OC(F)(F)F)cc32)c1)C(=O)O` [crystalline dihydrate, (2R)-2-{3-[3-(4-methoxybenzoyl)-2-methyl-6-(trifluoromethoxy)-1H-indol-1-yl]phenoxy}butanoic acid], in data set [2], the hygroscopicity entry is given as “non-hygroscopic”.
